The source of these data is US20090239951A1, “Crystalline Material” (priority 2006, published 2009).

What all share (assay type): physicochemical
The nature of data set [1]: Heat stability of crystalline form. The settings on record: solid crystalline form.
Data set [2] is described as follows: Hygroscopicity versus relative humidity.
Data set [3] in a line: Stability of the crystal form (general statement).
Data set [4] is described as follows: Conversion of crystal form on being dissolved or slurried in solvents.
Data set [5] in a line: Stability of Form N-5 slurries in ethanol:water mixtures. The settings on record: ethanol:water mixtures (1:1, 1:1.3 and 1:2) at 5, 25 and 30° C. after 1 h, 48 h and 5 days; confirmed by DSC and FTIR. The protocol: The stability of N-5 slurries in ethanol:water mixtures (1:1, 1:1.3 and 1:2) at 5, 25 and 30° C. was determined after 1 h, 48 h and 5 days. […] DSC and FTIR confirmed this.

The structures appear in SMILES notation.

With `CC(C)c1cc(Oc2c(Br)cc(NC(=O)CC(=O)O)cc2Br)ccc1O` [Form N-1, 3-[[3,5-dibromo-4-[4-hydroxy-3-(1-methylethyl)-phenoxy]-phenyl]-amino]-3-oxopropanoic acid, reference compound], in data set [1], the “heat stable up to” value is “around 125 °C”. The “becoming hygroscopic at a relative humidity of” value in data set [2] was 50%. Moreover, the “stability of crystal form” value in data set [3] is “unstable”. In addition, the “form conversion on being dissolved or slurried” value in data set [4] (common solvents: alcohols such as methanol, ethanol or isopropanol, nitromethane or nitroethane, alcohol/water mixtures) is given as “converts into Form N-5 and/or Form N-6”.

Consider `CC(C)c1cc(Oc2c(Br)cc(NC(=O)CC(=O)O)cc2Br)ccc1O` [Form N-5, 3-[[3,5-dibromo-4-[4-hydroxy-3-(1-methylethyl)-phenoxy]-phenyl]-amino]-3-oxopropanoic acid], for which, in data set [1], the “heat stable up to” value was “at least 170 °C”. Also, in data set [2], the “non-hygroscopic up to a relative humidity of” value is reported as 95%. The “stability when slurried in the presence of an alcohol” value in data set [4] (slurried in the presence of an alcohol, after very long periods conversion into Form N-6 may occur) is recorded as “stable for a number of days”. Further, the “stability of slurries (transformation to other form)” value in data set [5] was “did not transform to any other form”.

For `CC(C)c1cc(Oc2c(Br)cc(NC(=O)CC(=O)O)cc2Br)ccc1O` [Form N-6, 3-[[3,5-dibromo-4-[4-hydroxy-3-(1-methylethyl)-phenoxy]-phenyl]-amino]-3-oxopropanoic acid], the “heat stable up to” value in data set [1] is “at least 170 °C”. For the same molecule, the “non-hygroscopic up to a relative humidity of” value in data set [2] stood at 95%.
